The values that follow come from patent US11731943B2, “Therapeutic compounds, compositions and methods of use thereof” (priority 2016, dated 2023).

For assay [1], the system named is JAK1-dependent STAT6 phosphorylation downstream of IL-13 stimulation in BEAS-2B human bronchial epithelial cells. The experiment in a line: JAK1 pathway assay in BEAS-2B cells (IL-13-pSTAT6, MSD). It is filed as cell-based.
The target in assay [2] is isolated recombinant JAK1 kinase domain (Homo sapiens (Human), UniProt P23458). The experiment in a line: JAK1 enzyme assay (Caliper LabChip, Ki). Type of assay: biochemical. An outline of the steps:
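Recombinant human JAK1 kinase domain phosphorylating an N-terminally 5-carboxyfluorescein-labelled JAK3-derived peptide, 30 min at 22 °C, stopped with EDTA (50 mM final). Phosphorylated fraction of total peptide read by Caliper LabChip mobility shift; Ki from Morrison tight-binding fit corrected for ATP competition (Ki=Ki,app/(1+[ATP]/Km,app)).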

In assay [3] the target is isolated recombinant JAK2 kinase domain (Homo sapiens (Human), UniProt O60674). The experiment in a line: JAK2 enzyme assay (Caliper LabChip, Ki). Type of assay: biochemical. An outline of the steps:
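Recombinant human JAK1 or JAK2 kinase domain phosphorylating a 5-carboxyfluorescein-labelled JAK3-derived peptide; 30 min at 22 °C, stopped with EDTA (50 mM final). Phosphorylated product measured as a fraction of total peptide by Caliper LabChip mobility shift.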

The mark [4] stands for this setting: Homo sapiens, BEAS-2B, BEAS-2B cells, IL-13 stimulation, read-out: IL-13 p-STAT6 BEAS-2B IC50.
Setting [5] is: BEAS-2B cells, IL-13 stimulation, read-out: IL-13 p-STAT6 BEAS-2B IC50.

Where two headings read alike, the source gives them in different places.

Chain of isolated recombinant JAK2 kinase domain (O60674 849-1124): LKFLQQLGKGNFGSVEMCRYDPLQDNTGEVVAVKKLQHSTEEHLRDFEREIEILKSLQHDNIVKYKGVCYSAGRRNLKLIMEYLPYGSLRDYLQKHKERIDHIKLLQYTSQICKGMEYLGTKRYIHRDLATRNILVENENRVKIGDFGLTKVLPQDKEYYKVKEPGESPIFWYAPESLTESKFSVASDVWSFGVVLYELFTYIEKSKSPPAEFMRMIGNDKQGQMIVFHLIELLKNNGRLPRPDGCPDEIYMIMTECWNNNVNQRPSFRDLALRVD
Chain of isolated recombinant JAK1 kinase domain (P23458 875-1153): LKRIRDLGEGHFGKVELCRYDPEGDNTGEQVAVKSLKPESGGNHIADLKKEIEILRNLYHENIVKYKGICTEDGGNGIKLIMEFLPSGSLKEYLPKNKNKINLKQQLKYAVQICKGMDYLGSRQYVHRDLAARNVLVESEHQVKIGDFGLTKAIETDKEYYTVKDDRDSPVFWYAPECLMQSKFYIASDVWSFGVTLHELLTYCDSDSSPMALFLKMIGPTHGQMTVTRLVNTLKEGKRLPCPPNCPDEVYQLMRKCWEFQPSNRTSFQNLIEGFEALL

Turning to `COC(=O)Nc1nn(C2(CC#N)CCN(CC3CCC(c4ccccc4)CC3)CC2F)cc1C(N)=O` (stereo not drawn) [Example 235, methyl N-[4-carbamoyl-1-[4-(cyanomethyl)-3-fluoro-1-[(4-phenylcyclohexyl)methyl]-4-piperidyl]pyrazol-3-yl]carbamate], the IC50 (usually the concentration that gives 50% inhibition) in assay [1] (setting [4]) is 26 nM. Also, the Ki (usually the equilibrium dissociation constant of an inhibitor or competing ligand from its target) in assay [2] (read-out: JAK1 Ki) came to 0.32 nM; in assay [3], 0.67 nM.
Turning to `N#CC[C@@]1(n2cc(C(N)=O)c(NC(=O)C3CC3)n2)CCN(Cc2ccc(-c3ccccc3)cc2)C[C@H]1F` (single isomer, unassigned) [Example 15], in assay [1] (setting [4]), the IC50 amounted to 282 nM. Moreover, the Ki in assay [2] (read-out: JAK1 Ki) is 4.2 nM; in assay [3] it was 30.7 nM.
The matching figures for `Cc1cnn(-c2ccc(CN3CCC(CC#N)(n4cc(C(N)=O)c(NC(=O)C5CC5)n4)CC3)cc2)n1` [Example 253, 1-[4-(cyanomethyl)-1-[[4-(4-methyltriazol-2-yl)phenyl]methyl]-4-piperidyl]-3-(cyclopropanecarbonylamino) pyrazole-4-carboxamide]: 56 nM, 1 nM and 5.6 nM.
`N#CCC1(n2cc(C(N)=O)c(NC(=O)C3CC3C#N)n2)CCN(CC2CCC(c3ccccc3)CC2)CC1F` (stereo not drawn) [Example 230, 3-[(2-cyanocyclopropanecarbonyl)amino]-1-[4-(cyanomethyl)-3-fluoro-1-[(4-phenylcyclohexyl)methyl]-4-piperidyl]pyrazole-4-carboxamide]: in assay [1] (setting [5]), the IC50 was 60 nM. The figures for the inhibition constant Ki in assay [2] (read-out: JAK1 Ki) and in assay [3] were 0.51 nM and 1.8 nM, respectively.
Take `C#Cc1ccc(CN2CCC(CC#N)(n3cc(C(N)=O)c(NC(=O)OC)n3)C(F)C2)c(F)c1` (stereo not drawn) [Example 297, methyl N-[4-carbamoyl-1-[4-(cyanomethyl)-1-[(4-ethynyl-2-fluoro-phenyl)methyl]-3-fluoro-4-piperidyl]pyrazol-3-yl]carbamate]: the IC50 in assay [1] (setting [4]) is 62 nM. In addition, the Ki in assay [2] (read-out: JAK1 Ki) stood at 0.53 nM; in assay [3], 0.76 nM.
With `COC(=O)Nc1nn(C2(CC#N)CCN(Cc3ccc(-c4ccccc4)c(O)c3F)CC2F)cc1C(N)=O` (stereo not drawn) [Example 263, methyl N-[4-carbamoyl-1-[4-(cyanomethyl)-3-fluoro-1-[(2-fluoro-3-hydroxy-4-phenyl-phenyl)methyl]-4-piperidyl]pyrazol-3-yl]carbamate], in assay [1] (setting [4]), the IC50 was found to be 25 nM. For the same compound, the Ki was found to be 0.3 nM in assay [2] (read-out: JAK1 Ki) and 0.24 nM in assay [3].
The matching figures for `N#CCC1(n2cc(C(N)=O)c(NC(=O)C3CC3)n2)CCN(Cc2ccc(-c3ccn(CC(F)(F)F)n3)c(F)c2)CC1` [Example 190, 1-[4-(cyanomethyl)-1-[[3-fluoro-4-[1-(2,2,2-trifluoroethyl)pyrazol-3-yl]phenyl]methyl]-4-piperidyl]-3-(cyclopropanecarbonylamino) pyrazole-4-carboxamide]: 93 nM, 1.1 nM and 11 nM.
The matching figures for `COC(=O)Nc1nn(C2(CC#N)CCN(Cc3cc(O)c(Br)cc3Cl)CC2F)cc1C(N)=O` (stereo not drawn) [Example 296, methyl N-[1-[1-[(4-bromo-2-chloro-5-hydroxy-phenyl)methyl]-4-(cyanomethyl)-3-fluoro-4-piperidyl]-4-carbamoyl-pyrazol-3-yl]carbamate]: 52 nM, 0.56 nM and 0.59 nM.
On to `N#CC[C@]1(n2cc(C(N)=O)c(NC(=O)C3CC3)n2)CC[C@@H](N2CC(F)C2)CC1` [Example 180, 1-[1-(cyanomethyl)-4-(3-fluoroazetidin-1-yl)cyclohexyl]-3-(cyclopropanecarbonylamino) pyrazole-4-carboxamide], for which the IC50 in assay [1] (Homo sapiens, BEAS-2B, read-out: IL-13 p-STAT6 BEAS-2B IC50, BEAS-2B cells, IL-13 stimulation) was determined as 168 nM. Also, the results for the Ki in assay [2] and in assay [3] were 5.5 nM and 17.3 nM, respectively.
For the compound `COC(=O)Nc1nn(C2(CC#N)CCN(Cc3ccc(-c4ccco4)cc3)CC2F)cc1C(N)=O` (stereo not drawn) [Example 220, methyl N-[4-carbamoyl-1-[4-(cyanomethyl)-3-fluoro-1-[[4-(2-furyl)phenyl]methyl]-4-piperidyl]pyrazol-3-yl]carbamate], the IC50 in assay [1] (setting [4]) turned out to be 15 nM. Moreover, the Ki came out at 0.27 nM in assay [2] (read-out: JAK1 Ki) and 0.44 nM in assay [3].
On to `N#CCC1(n2cc(C(N)=O)c(NC(=O)C3CC3)n2)CCN(Cc2ccc(-c3ccccc3)c(O)c2)CC1` [Example 11, 1-(4-(Cyanomethyl)-1-((2-hydroxy-[1,1′-biphenyl]-4-yl)methyl)piperidin-4-yl)-3-(cyclopropanecarboxamido)-1H-pyrazole-4-carboxamide], for which, in assay [1] (setting [4]), the IC50 was 383 nM. In addition, the figures for the Ki in assay [2] (read-out: JAK1 Ki) and in assay [3] were 0.4 nM and 1 nM, respectively.
The matching figures for `N#CCC1(n2cc(C(N)=O)c(NC(=O)C3CC3)n2)CCN(Cc2ccc(-c3cccc(F)c3)c(O)c2)CC1` [Example 139, 1-[4-(cyanomethyl)-1-[[4-(3-fluorophenyl)-3-hydroxy-phenyl]methyl]-4-piperidyl]-3-(cyclopropanecarbonylamino) pyrazole-4-carboxamide]: 104 nM, 0.4 nM and 1 nM.
With `COc1cccc(-c2ccc(CN3CCC(CC#N)(n4cc(C(N)=O)c(NC(=O)C5CC5)n4)CC3)cc2)c1` [Example 152, 1-[4-(cyanomethyl)-1-[[4-(3-methoxyphenyl)phenyl]methyl]-4-piperidyl]-3-(cyclopropanecarbonylamino) pyrazole-4-carboxamide], the IC50 in assay [1] (setting [4]) came to 126 nM. For the same compound, the Ki in assay [2] (read-out: JAK1 Ki) is 1.3 nM; in assay [3] it was 7.8 nM.
Turning to `N#CCC1(n2cc(C(N)=O)c(NC(=O)C3CC3C#N)n2)CCN(Cc2ccc(-c3ccccc3)cc2F)CC1F` (stereo not drawn) [Example 218, 3-[(2-cyanocyclopropanecarbonyl)amino]-1-[4-(cyanomethyl)-3-fluoro-1-[(2-fluoro-4-phenyl-phenyl)methyl]-4-piperidyl]pyrazole-4-carboxamide], the IC50 in assay [1] (setting [5]) is 28 nM. Also, the results for the Ki in assay [2] (read-out: JAK1 Ki) and in assay [3] were 0.35 nM and 0.59 nM, respectively.
In the case of `Cn1ccc(-c2ccc(CN3CCC(CC#N)(n4cc(C(N)=O)c(NC(=O)C5CC5)n4)CC3)cc2)n1` [Example 82], the IC50 in assay [1] (setting [4]) was determined as 688 nM. Moreover, the Ki came out at 4.9 nM in assay [2] (read-out: JAK1 Ki) and 14.3 nM in assay [3].
The matching figures for `N#CCC1(n2cc(C(N)=O)c(NC(=O)C3CC3)n2)CCN(Cc2ccc(-c3cccc(Cl)c3)cc2)CC1` [Example 146, 1-[1-[[4-(3-chlorophenyl)phenyl]methyl]-4-(cyanomethyl)-4-piperidyl]-3-(cyclopropanecarbonylamino) pyrazole-4-carboxamide]: 95 nM, 1.1 nM and 8.2 nM.
Turning to `N#CCC1(n2cc(C(N)=O)c(NC(=O)C3CC3)n2)CCN(Cc2ccc(-c3ccc(Cl)s3)cc2)CC1` [Example 148, 1-[1-[[4-(5-chloro-2-thienyl)phenyl]methyl]-4-(cyanomethyl)-4-piperidyl]-3-(cyclopropanecarbonylamino) pyrazole-4-carboxamide], the IC50 in assay [1] (setting [4]) was determined as 48 nM. The Ki in assay [2] (read-out: JAK1 Ki) amounted to 1.8 nM; in assay [3], 21.2 nM.
The matching figures for `COc1ccc(-c2ccc(CN3CCC(CC#N)(n4cc(C(N)=O)c(NC(=O)C5CC5)n4)CC3)cc2)cc1` [Example 153, 1-[4-(cyanomethyl)-1-[[4-(4-methoxyphenyl)phenyl]methyl]-4-piperidyl]-3-(cyclopropanecarbonylamino) pyrazole-4-carboxamide]: 103 nM, 1.1 nM and 30.8 nM.
The matching figures for `N#CCC1(n2cc(C(N)=O)c(NC(=O)C3CC3)n2)CCN(Cc2ccc(I)cc2)CC1` [Example 55]: 98 nM, 3.2 nM and 31.4 nM.
The matching figures for `COC(=O)Nc1nn(C2(CC#N)CCN(Cc3ccc(-n4nccn4)cc3)CC2F)cc1C(N)=O` (stereo not drawn) [Example 200, methyl N-[4-carbamoyl-1-[4-(cyanomethyl)-3-fluoro-1-[[4-(triazol-2-yl)phenyl]methyl]-4-piperidyl]pyrazol-3-yl]carbamate]: 39 nM, 0.51 nM and 0.96 nM.
For the compound `CCn1ccc(-c2ccc(CN3CCC(CC#N)(n4cc(C(N)=O)c(NC(=O)C5CC5)n4)C(F)C3)cc2)n1` (stereo not drawn) [Example 217, 1-[4-(cyanomethyl)-1-[[4-(1-ethylpyrazol-3-yl)phenyl]methyl]-3-fluoro-4-piperidyl]-3-(cyclopropanecarbonylamino) pyrazole-4-carboxamide], the IC50 in assay [1] (setting [4]) was found to be 56 nM. Further, the Ki in assay [2] (read-out: JAK1 Ki) stood at 0.66 nM; in assay [3], 0.49 nM.
The matching figures for `N#CCC1(n2cc(C(N)=O)c(NC(=O)C3CC3)n2)CCN(Cc2ccc(Br)c(F)c2)CC1` [Example 77]: 227 nM, 2.6 nM and 44.7 nM.
Turning to `CC(C)OC1(C(F)(F)F)CN([C@H]2CC[C@@](CC#N)(n3cc(C(N)=O)c(NC(=O)C4CC4)n3)CC2)C1` [Example 135], the IC50 in assay [1] (setting [4]) worked out at 170 nM. In addition, the Ki came out at 2.4 nM in assay [2] (read-out: JAK1 Ki) and 24.3 nM in assay [3].
The matching figures for `COC(=O)Nc1nn(C2(CC#N)CCN(Cc3ccc(C4=CCCC4)cc3)CC2F)cc1C(N)=O` (stereo not drawn) [Example 268, methyl N-[4-carbamoyl-1-[4-(cyanomethyl)-1-[[4-(cyclopenten-1-yl)phenyl]methyl]-3-fluoro-4-piperidyl]pyrazol-3-yl]carbamate]: 43 nM, 0.9 nM and 1.9 nM.
